Laboratory results reported in US20240228633A9, “METHODS OF TREATING CANCER WITH PDGFR ALPHA INHIBITORS” (Eli Lilly and Company, priority 2021, published 2024).
Like-named read-outs stand apart in the source and are kept apart here.

What was measured:
LMS = experiment: Median overall survival in LMS patients by PDGFRβ tumor status; format: in vivo, human; conditions: for OS HR: LMS female patients; for Hazard Ratio, overall survival / Hazard Ratio (95% CI), overall survival: Olaratumab + Doxorubicin vs Placebo + Doxorubicin; for OS HR adjusted for ECOG PS: adjusting for ECOG PS
[1] = tested on: advanced or metastatic soft tissue sarcoma; conditions: STS patients; for HR (95% CI), overall survival: Olaratumab + Doxorubicin vs Placebo + Doxorubicin
Procedure: Study Design: Patients with advanced or metastatic soft tissue sarcoma are treated with olaratumab (20 mg/kg loading dose on Days 1 and 8 of a 21-day cycle in Cycle 1, followed by 15 mg/kg on Days 1 and 8 in subsequent 21-day cycle) in combination with doxorubicin (75 mg/m^2 on Day 1) (“investigational cohort”) and compared to patients treated with placebo (on Days 1 and 8) plus doxorubicin (75 mg/m^2 on Day 1) (“control cohort”). Patients are treated for 8 cycles, followed by olaratumab monotherapy or placebo until evidence of progressive disease, unacceptable toxicity or death. […] Patients are assessed for median overall survival (OS).
Immunohistochemistry Assay to determine PDGFR/3 expression: For immunohistochemistry analysis, tumor tissue from patients is collected, formalin-fixed in 10% neutral buffered formalin, and paraffin-embedded (FFPE). PDGFRβ protein expression on tumor cells is assessed by immunohistochemistry. Briefly, from FFPE tissue blocks containing the patient tumor tissue, a 4-6 micrometer section is obtained and placed on a positively charged glass slide. Anti-PDGFRβ mouse monoclonal antibody 2B3 is used to detect expression of PDGFRβ (clone 2B3, Cell Signaling Technology® catalog number 3175S), diluted in Dako Primary Antibody Diluent with Background Reducing Components (Dako/Agilent catalog number S3022) at 0.25 μm/mL. Immunohistochemistry is performed on a Dako Autostainer Link 48/PT Link Incubator. Deparaffinization with the Link 48/PT Link Incubator is accomplished at 97° C. for 20 minutes. Target retrieval is next accomplished with immersion of the unstained slides into EnVision™ FLEX Target Retrieval Solution High pH (Dako) on the Dako Link48/PT Link Incubator. Following a rinse in RT EnVision™ FLEX Wash Buffer (1×), specific immunohistochemical staining with the 2B3 antibody is accomplished by FLEX Peroxidase Block for 5 minutes, application of the 0.25 ug/mL concentration of anti-human PDGFRβ antibody 2B3 with incubation for 60 minutes, followed by FLEX/HRP application and incubation for 20 minutes, then application of FLEX DAB+ Substrate Chromogen for 10 minutes, and finally FLEX hematoxylin for 5 minutes. Ready-to-use FLEX Mouse Negative Control (Dako/Agilent catalog number IR750) is performed alongside PDGFRβ staining and used as a quality control (negative control) for the assay. Stained slides are then evaluated by trained personnel using a brightfield microscope.

soft tissue sarcoma = conditions: clinical trials for treating soft tissue sarcoma; cited from earlier work
[2] = LMS patients excluding PDGFRβ positive females
[3] = LMS patients, PDGFRβ negative tumor status
[4] = LMS patients, PDGFRβ positive tumor status
[5] = PDGFRβ negative and PDGFRα positive tumor status

## doxorubicin [Placebo + Doxorubicin, reference compound]
LMS; [2]
  Median OS months: 20.9 months
LMS; [3]
  Median OS months: 21.88 (16.72, 35.55) months
LMS; LMS patients, PDGFRβ negative tumor status, listed as control cohort
  Median OS months: 21.88 months
LMS; [4]
  Median OS months: 21.39 (15.57, 24.57) months
LMS; LMS patients, PDGFRβ positive tumor status, listed as control cohort
  Median OS months: 21.39 months
[1]; PDGFRα negative tumor status
  median OS: 21.9 months
[1]; PDGFRα positive tumor status
  median OS: 19.1 months
[1]; [5]
  median OS: 20.6 months
[1]; PDGFRβ negative tumor status
  Median OS months: 20.57 months
[1]; PDGFRβ positive tumor status
  Median OS months: 19.88 months
[1]; PDGFRβ positive tumor status, listed as control cohort
  Median OS months: 19.9 months

## LARTRUVO®: an antibody that specifically binds human PDGFRα
Soft tissue sarcoma
  therapeutic endpoints in clinical trials: failed to meet certain therapeutic endpoints

## Olaratumab + Doxorubicin: olaratumab (antibody that binds human PDGFRα) in combination with doxorubicin, followed by olaratumab monotherapy
LMS; PDGFRβ negative tumor status
  OS HR: 0.55
LMS; PDGFRβ positive tumor status
  OS HR: 1.34
LMS; [2]
  Median OS months: 28.5 months
  Hazard Ratio, overall survival: 0.60; p = 0.035
LMS; LMS patients excluding PDGFRβ positive females, listed as investigational cohort
  Hazard Ratio, overall survival: 0.60
LMS; [3]
  Median OS months: 29.11 months
LMS; LMS patients, PDGFRβ negative
  Hazard Ratio (95% CI), overall survival: 0.65 (0.33, 1.25)
LMS; LMS patients, PDGFRβ negative, listed as investigational cohort
  Hazard Ratio (95% CI), overall survival: 0.65
LMS; [4]
  Median OS months: 20.14 months
LMS; LMS patients, PDGFRβ positive
  Hazard Ratio (95% CI), overall survival: 1.05 ((0.71, 1.55)
LMS; LMS patients, PDGFRβ positive, listed as investigational cohort
  Hazard Ratio (95% CI), overall survival: 1.05
LMS; PDGFRβ negative women with LMS
  OS HR adjusted for ECOG PS: 0.55
LMS; PDGFRβ positive women with LMS
  OS HR adjusted for ECOG PS: 1.34
[1]; PDGFRα negative tumor status
  median OS: 23.6 months
[1]; PDGFRα positive tumor status
  median OS: 17.2 months
[1]; [5]
  median OS: 28.5 months
[1]; PDGFRβ negative tumor status
  Median OS months: 28.32 months
[1]; PDGFRβ negative
  HR (95% CI), overall survival: 0.85 (0.54-1.33)
[1]; PDGFRβ negative, listed as investigational cohort
  HR (95% CI), overall survival: 0.85
[1]; PDGFRβ positive tumor status
  Median OS months: 18.79 months
[1]; PDGFRβ positive tumor status, listed as investigational cohort
  Median OS months: 18.8 months
[1]; PDGFRβ positive
  HR (95% CI), overall survival: 1.10 (0.84-1.44)
